Experimental data: US8017828B2, “Utilization of rare sugars in plant or microorganism” (Shikoku Research Institute Incorporated, priority 2004, dated 2011)

Experiments:
[1] = test system: cherry tomato plant “petite”; assay: Hydroponic growth of cherry tomato with 0.05 or 0.5 mM sugar, 40 days; format: in vivo; conditions: until 40 days; for stem length, rank among 7 treated plots: 0.05 mM
Procedure: Further, on Dec. 18, 2003, a cherry tomato plant “petite” was transplanted for permanent planting to a hydroponic apparatus, and a total of 7 treated plots in which a plot without addition was added to 6 treated plots with the use of a nutrient solution supplemented with 0.05 mM or 0.5 mM D-psicose, D-fructose or mannitol were prepared. A survey was carried out with regard to the growth until 40 days after the permanent planting. As a result, the stem length was the shortest in the cases of 0.05 mM D-psicose and 0.05 mM D-fructose. Although a significant difference in the stem diameter was not observed among treated plots, however, a tendency was observed that the stem was slightly thinner in the treated plot of any of the sugars at a high concentration. A significant difference in the number of leaves was not observed among treated plots.

[2] = test system: cherry tomato plant “mini carol”; assay: Hydroponic growth of cherry tomato with 0.05 or 0.5 mM sugar, 10 days; format: in vivo
Procedure: Subsequently, a cherry tomato plant “mini carol” was transplanted for permanent planting to a hydroponic apparatus, and a total of 7 treated plots in which a plot without addition (control plot) was added to 6 treated plots with the use of a nutrient solution supplemented with 0.05 mM or 0.5 mM D-psicose, D-fructose or mannitol were prepared. A survey was carried out with regard to the growth at 10 days after the permanent planting. […] The stem diameter was the smallest in the case of 0.5 mM D-psicose. The number of leaves was the smallest in the case of 0.5 mM D-psicose and 0.5 mM mannitol. The root length was the smallest in the case of 0.5 mM psicose.

[3] = test system: stress/hormone response genes; format: in vivo, Lotus japonicus; conditions: for activation of gene group that responds to pathogenic bacteria and environmental stresses: 5 mM in medium, first one week
Procedure: A pattern of induction of a gene in the case where D-psicose was added to a medium for Lotus japonicus was examined by an experiment using a cDNA array.
Lotus japonicus was germinated from a seed and cultivated in an L&B medium (hydroponic culture medium). When the seed was germinated, Mesorhizobium loti was also inoculated. This condition was applied to both a control plot and a plot of D-psicose addition. With regard to the array, a microarray on which 14,000 clones were immobilized by using a Lotus japonicus cDNA array was used. After test plants were germinated, they were cultivated with an L&B medium supplemented with D-psicose or without addition for 1 week in a growth cabinet (22° C., 30,000 Lux). After total RNA was extracted from the plant body, it was labeled with ^33P in the process where it was converted to cDNA, and then hybridization was carried out. Reading was carried out using STORM 850 and analysis was carried out with Array Vision.

[4] = test system: Fusarium oxysporum (IFO 31213 strain); format: in vivo, tomato plant (variety: “House Momotaro”)
Procedure: By using a tomato plant and a strain of Fusarium oxysporum, which is a typical pathogenic bacterium of tomato, an effect of D-psicose during infection in a stage of raising seedlings thereof was examined.
To be more specific, seeds of a tomato plant (variety: “House Momotaro”) were subjected to an immersion treatment by immersing them in a 0.01% (w/v) D-psicose solution or a 0.007% (w/v) probenazole solution for 15 minutes while stirring slowly, followed by air-drying on sterile gauze, and then used as treated seeds. In the medium culture for raising seedlings (pete:pearlite:vermiculite=2:1:1), 0.01% (w/v) D-psicose or 0.007% (w/v) probenazole was mixed, and the soil was placed in black polypot plant containers with a diameter of 9 cm, and then, 4 seeds of the above treated seeds were sown in each pot. The seeds (20 seeds in total) were sown in 5 pots for each test plot. After sowing, the pots were placed in a growth chamber at 23° C. and 5,000 Lux (12-hour day length), and raising of seedlings was initiated. At 1 month and 2 months after the initiation of raising of seedlings, a suspension of mycelium of Fusarium oxysporum (IFO 31213 strain) was inoculated around the roots, whereby infection with Fusarium oxysporum was caused. After the inoculation of Fusarium oxysporum, the temperature was raised to 30° C., and cultivation was continued. At about 4 months after sowing, a survey was carried out with regard to the survival rate of plants, the conditions of browning of vascular bundles and roots, the stem diameter and the like.

[5] = test system: tomato plant (variety: “Momotaro”); assay: Spraying of sugar solution during tomato cultivation; format: in vivo; conditions: 0.2% (w/v) sprayed weekly
Procedure: In the process of cultivation of tomato, an effect of spraying D-psicose was examined.
A tomato plant (variety: “Momotaro”) was used in an experiment. Tomato seedlings were transplanted for permanent planting to No. 7 unglazed pots filled with “Hana to Yasai no Tsuchi (garden soil for flowers and vegetables)” and a cultivation test was carried out in a vinyl house equipped with a heating device. As a fertilizer, 4 granules of IB compound fertilizer per pot were given around the roots, and irrigation was carried out by automatically feeding 500 ml of water twice a day. During the cultivation, on a weekly basis, water, a 0.2% (w/v) D-glucose solution or a 0.2% (w/v) D-psicose solution was sprayed onto the whole plant. As for the number of tomato plants, 10 plants were used for each group, and the cultivation was carried out twice, i.e., in summer (from April 20 to Aug. 9, 2004) and in winter (from Nov. 4, 2004 to Mar. 14, 2005). A survey was carried out with regard to the growth conditions during the cultivation and yield of fruits.

[6] = test system: rice plant (variety: Nihonbare); assay: Growth of rice seedlings in hydroponic culture with D-psicose; format: in vivo
[7] = test system: tomato (Home Momotaro), sunny lettuce (Red Wave), morning glory (Tairin Zaki Kongo); assay: Seed germination, short-time and continuous treatment (Experiment 2); format: in vivo; conditions: continuous treatment with 1%
Procedure: In order to clarify an effect of a short-time treatment, 50 seeds of Salsola komarovii, tomato (Home Momotaro) and sunny lettuce (Red Wave), and 20 seeds of morning glory (Tairin Zaki Kongo) were immersed in any of deionized water, 1% D-psicose, 1% D-allose and 1% L-galactose for 24 hours (25° C., dark), respectively, then, they were lightly washed with deionized water. Then, the seeds were sown in a dish with a diameter of 9 cm having a filter paper placed therein, and germinated under the same condition by poring 5 to 10 ml of deionized water therein. Further, for the comparison, a continuous treatment with 1% D-psicose was carried out in accordance with the same procedure.

[8] = 0.5 mM, hydroponic culture for 10 days

O=C(CO)[C@@H](O)[C@H](O)[C@H](O)CO [D-fructose, reference compound]
stem length, rank among 7 treated plots [1]: the shortest | stem length, rank among 7 treated plots ([2]; 0.5 mM): the longest | activation of gene group that responds to pathogenic bacteria and environmental stresses [3]: not observed

O=C(CO)[C@H](O)[C@H](O)[C@H](O)CO [D-psicose]
stem length, rank among 7 treated plots [1]: the shortest | underground part weight, rank among 7 treated plots ([1]; 0.5 mM): the smallest | degree of chemical damage (yellow discoloration of leaves) ([4]; in vivo): smaller than that of the case of probenazole | Vascular bundle browning ratio ([4]; seed immersion (0.01% D-psicose or 0.007% probenazole), no seed treatment 25%): 5% | Stem diameter ([4]; seed immersion treatment): increased | inhibitory effect on Fusarium wilt ([4]; seed immersion with D-psicose solution): equal to or more than that of probenazole | significant effect of spraying on cultivation ([5]; summer): not observed | number of fruits ([5]; winter): increase | yield of fruits ([5]; winter): increase | Number of roots ([6]; 0.5 mM): no change | Number of roots ([6]; 0.5 mM D-psicose, Day 10 after germination, non-treated 7.00 ± 0.6): 7.00 ± 0.6 roots | Seed root length ([6]; 0.5 mM D-psicose, Day 10 after germination, non-treated 7.58 ± 0.23): 5.15 ± 0.26 cm | Plant length ([6]; 0.5 mM D-psicose, Day 10 after germination, non-treated 12.08 ± 0.21): 5.29 ± 0.58 cm | root length inhibited by [6, 8]: 67% | seedling length inhibited by [6, 8]: 43% | Plant length, percentage of the relative value to untreated plot ([6]; 7 days (1 week) after transplantation to pot, after 0.5 mM D-psicose): 52.4% | Plant length ([6]; 7 days after transplantation to pot, after 0.5 mM D-psicose treatment, untreated 31.4 ± 0.5): 16.5 ± 2.4 cm | Plant length ([6]; 14 days after transplantation to pot, after 0.5 mM D-psicose treatment, untreated 44.7 ± 0.1): 35.3 ± 2.1 cm | inhibition at 100 µM ([6]; Oryza sativa, 0.1 mM): 30% | time to recover to the size equal to that of the untreated plot after transplanting to soil ([6]; after 0.5 mM treatment, raised without D-psicose): about 3 weeks | growth relative to the untreated plot ([6]; until 0.05 mM (0.005 to 0.05 mM)): > 98% | stem length, rank among 7 treated plots ([2]; 0.05 mM): the second longest | fresh and dry aerial part weights, rank among 7 treated plots ([2]; 0.5 mM): the smallest | number of leaves, rank among 7 treated plots ([2]; 0.5 mM): the smallest | root length, rank among 7 treated plots ([2]; 0.5 mM): the smallest | stem diameter, rank among 7 treated plots ([2]; 0.5 mM): the smallest | stem length, rank among 7 treated plots ([2]; 0.5 mM): the shortest | germination [7]: inhibited | activation of gene group that responds to pathogenic bacteria and environmental stresses [3]: activated | expression of a gene group regulated by plant hormones such as auxin ([3]; about 0.1 mM in medium): an increase or a decrease in the expression | Expression ratio (D-psicose/water): auxin response factor 6 (ARF6) ([3]; psicose: 0.1 mM, 1 week): 2.5 | Expression ratio (D-psicose/water): auxin-binding protein T85 precursor (ABP) ([3]; psicose: 0.1 mM, 1 week): 2.4 | Expression ratio (D-psicose/water): chitinase ([3]; psicose: 0.1 mM, 1 week): 2.2 | Expression ratio (D-psicose/water): chitinase (EC 3.2.1.14) class II ([3]; psicose: 0.1 mM, 1 week): 2.2 | Expression ratio (D-psicose/water): glycine-rich RNA-binding, abscisic acid-inducible protein ([3]; psicose: 0.1 mM, 1 week): 2.5 | Expression ratio (D-psicose/water): metal stress-regulated protein SR7 ([3]; psicose: 0.1 mM, 1 week): 2.4 | Expression ratio (D-psicose/water): pathogen-inducible alpha-dioxygenase ([3]; psicose: 0.1 mM, 1 week): 2.4 | Expression ratio (D-psicose/water): putative WD-40 repeat protein ([3]; psicose: 0.1 mM, 1 week): 2.2 | Expression ratio (D-psicose/water): turgor-responsive protein 26G ([3]; psicose: 0.1 mM, 1 week): 2.3 | Expression ratio (D-psicose/water): ACC oxidase ([3]; psicose: 5 mM, 1 week): 5.1 | Expression ratio (D-psicose/water): PDR5-like ABC transporter ([3]; psicose: 5 mM, 1 week): 10.8 | Expression ratio (D-psicose/water): PR-10-1 protein ([3]; psicose: 5 mM, 1 week): 5.5 | Expression ratio (D-psicose/water): auxin response factor like protein ([3]; psicose: 5 mM, 1 week): 5.6 | Expression ratio (D-psicose/water): chalcone synthase ([3]; psicose: 5 mM, 1 week): 5.4 | Expression ratio (D-psicose/water): class I chitinase ([3]; psicose: 5 mM, 1 week): 13.2
